In patent US20260125381A1, “NOVEL Kv3 CHANNEL MODULATORS” (Merck Sharp & Dohme LLC, priority 2022, published 2026):
pEC50: −log10 of the molar value.

Key:
[1] = target: T1, Kv3.1 (Homo sapiens, UniProt P48547); assay: Automated whole cell patch clamp (Qube) on HEK cells overexpressing Kv3.1; format: cell-based; design: expressed in transfected cells; host or cells: HEK cells, stably transfected; details: stably transfected HEK cells overexpressing Kv3.1
T1 sequence (P48547 1-511): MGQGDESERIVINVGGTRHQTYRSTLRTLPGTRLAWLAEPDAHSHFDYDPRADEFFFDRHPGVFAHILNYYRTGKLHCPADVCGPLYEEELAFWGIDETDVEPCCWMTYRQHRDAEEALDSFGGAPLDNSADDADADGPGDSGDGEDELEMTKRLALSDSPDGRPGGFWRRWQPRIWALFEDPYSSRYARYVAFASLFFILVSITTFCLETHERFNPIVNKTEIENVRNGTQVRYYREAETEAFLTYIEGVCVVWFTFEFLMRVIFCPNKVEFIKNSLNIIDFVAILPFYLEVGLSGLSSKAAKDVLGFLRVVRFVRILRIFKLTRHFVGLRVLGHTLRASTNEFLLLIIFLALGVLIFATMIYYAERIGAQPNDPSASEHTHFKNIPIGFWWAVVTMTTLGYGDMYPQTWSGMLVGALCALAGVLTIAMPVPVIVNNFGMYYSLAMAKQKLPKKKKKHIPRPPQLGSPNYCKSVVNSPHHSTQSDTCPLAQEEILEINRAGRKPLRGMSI
Method: In Vitro Characterization of Positive Modulators of Kv3.1 in Automated Patch Clamp
Automated whole cell patch-clamp was performed on the Qube using stably transfected HEK cell lines overexpressing Kv3.1 channels. Stable cell lines expressing Kv3.2 or Kv3.4 were used for counter-screening. Cells were held at −70 mV. Two depolarizing test pulses to −15 mV (200 ms) and +20 mV (200 ms) were given at a frequency of 0.1 Hz. Kv3.1 current amplitude elicited by test pulses was measured before and after compound addition at steady state. Ten concentrations were tested for each molecule. Raw data from Qube experiments were retrieved from the Qube database and analyzed using the Sophion Analyzer software and DR FIT Spotfire analysis. Apparent compound EC50 values, maximum potentiation, and EC2xIK (effective concentration at which a doubling in K current was observed) were determined using dose response 4 parameter curve fitting.

[2] = target: T1, Kv3.1; assay: FLIPR based Tl+ influx assay for positive modulators of Kv3.1; format: cell-based; design: expressed in transfected cells; host or cells: ARF (assay-ready frozen) cells; details: thallium influx, FLIPR Tetra, 1536-well
Method: FLIPR Based Tl+ Influx Assay for Characterization of Positive Modulators of Kv3.1
Thallium influx assay was performed following manufacturer instruction with modifications. The major improvement was that the assay was miniaturized in 1536w assay plate to achieve ultrahigh throughput. The cell culture medium used for cell plating was the same medium mentioned above without selection antibiotics. Twenty to twenty four hours prior to the assay day, ARF cells in frozen vials were thawed in 37° C. water bath and washed once in the culture medium. The cell density was adjusted at 8.3×E5/ml and plated in 1536-w PDL coated plates (Aurora. US) at 4 μl/w, using Multidrop Combi (Thermo Fisher Scientific, Waltham, MA USA). Plates were then centrifuged at 300 g for two minutes for cells to achieve uniform settlement. The MicroClime plate lid (Labcyte Inc., San Jose, CA USA) was used to prevent evaporation from the edge wells and minimize the edge effect. Plates were incubated at 37° C., 5% CO2 overnight.
On the next day, the cell plates were further loaded with 3 μl/w of fluorescence dye solution containing all required components in the assay kit as instructed by the manufacturer protocol and incubated at room temperature for 60 min. Control and test compounds were then added into the cell plate by acoustic liquid transfer Echo (Labcyte Inc., San Jose, CA USA). After 10 min incubation with compounds, the cell plate was transferred to FLIPR Tetra platform (Molecular Devices, Sunnyvale, CA, USA) for recording fluorescence signal. The plate was recorded with excitation wavelength at 475-485 nm and emission wavelength at 510-545 nm. Data acquisition was taken at 1 Hz and completed in 130 seconds. After the first 10 s of recording, 3 μl of stimulus buffer was added into each well by liquid handler equipped in the FLIPR platform. The buffer contains 95 mM of Na2SO4 to maintain osmolarity, 7.5 mM of K2SO4 to depolarize membrane and activate the voltage gated Kv3.1 or 3.4 channels and 1 mM of Tl2SO4 to provide 2 mM Tl+ for Tl sensitive fluorescent signal. […]

Row | Compound | pEC50 [1] | pEC50 [2]
1 | Cc1cccc(Oc2ccc(-n3c(=O)[nH]c4cccnc43)cn2)c1C [Example 1, 3-(6-(2,3-dimethylphenoxy)pyridin-3-yl)-1,3-dihydro-2H-imidazo[4,5-b]pyridin-2-one] | 5.36 | 5.79
2 | Cc1ncc2[nH]c(=O)n(-c3cnc(Oc4cccc5c4C(C)(C)CO5)c(Cl)c3)c2n1 [Example 2, 9-(5-chloro-6-((3,3-dimethyl-2,3-dihydrobenzofuran-4-yl)oxy)pyridin-3-yl)-2-methyl-7,9-dihydro-8H-purin-8-one] | 6.67 | 6.84
3 | Cc1ncc2[nH]c(=O)n(-c3cnc(Oc4cccc5c4C(C)(C)CO5)c(Cl)c3C)c2n1 [Example 3, 9-(5-chloro-6-((3,3-dimethyl-2,3-dihydrobenzofuran-4-yl)oxy)-4-methylpyridin-3-yl)-2-methyl-7,9-dihydro-8H-purin-8-one] | – | 7.51
